Assays:
MK2 [1] = target: T1, MK2 (Homo sapiens, UniProt P49137); assay: MK2 degradation in human SW1353 cells (MSD, 24 h); format: cell-based; parameters: endogenous in cells; host or cells: SW-1353 (ATCC HTB-94); conditions: for Dmax: read-out: MK2 MSD SW 1353 24 h Dmax %; for DC50: read-out: MK2 MSD SW1353 degradation 24 h GMean External Abs DC50
In short: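 DC50 derived by 4-parameter logistic fit, with DMSO-treated signal as top and lysis-buffer signal as bottom. Remaining MK2 was measured by MSD electrochemiluminescent sandwich assay in RIPA lysates of human SW1353 cells exposed for 24 h at 37 °C to serially diluted compound in 0.1% DMSO.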

MK2 [2] = target: T1, MK2; assay: MK2 degradation in human THP-1 monocytic cells (MSD, 24 h); format: cell-based; parameters: endogenous in cells; key to MK2 MSD THP-1 degradation 24 h GMean External Abs DC50: A (<0.001 μM); B (0.001-0.01 μM); C (0.01-0.1 μM); D (>0.1 μM); —: “-”=not tested or inactive; conditions: for Dmax: THP-1, THP-1 cells; for DC50 / MK2 MSD THP-1 degradation 24 h GMean External Abs DC50: THP-1 cells; for DC50: read-out: MK2 MSD THP-1 degradation 24 h GMean External Abs DC50
In short: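 Readout: residual MK2 protein in THP-1 lysates, measured by MSD electrochemiluminescence sandwich assay after 24 h compound exposure (≤10-point serial dilutions, 0.1% DMSO, 37 °C). Curves normalised between lysis-buffer and DMSO-cell signals; DC50 by 4-parameter logistic fit.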

T1 sequence (P49137 whole entry): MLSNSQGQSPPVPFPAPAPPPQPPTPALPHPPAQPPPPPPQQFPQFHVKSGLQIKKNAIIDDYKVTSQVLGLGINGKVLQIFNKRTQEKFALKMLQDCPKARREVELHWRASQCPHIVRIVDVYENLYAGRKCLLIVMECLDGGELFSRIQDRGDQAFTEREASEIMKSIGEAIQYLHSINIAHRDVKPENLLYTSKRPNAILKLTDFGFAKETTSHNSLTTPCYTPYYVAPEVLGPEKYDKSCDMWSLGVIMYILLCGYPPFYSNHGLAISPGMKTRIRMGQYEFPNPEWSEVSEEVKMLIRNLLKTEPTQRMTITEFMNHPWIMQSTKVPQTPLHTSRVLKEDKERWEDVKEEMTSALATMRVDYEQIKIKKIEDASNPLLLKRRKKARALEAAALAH

SMILES	Dmax (MK2 [1])	DC50 (MK2 [1])	Dmax (MK2 [2])	DC50 (MK2 [2])	MK2 MSD THP-1 degradation 24 h GMean External Abs DC50 (MK2 [2])
Cn1c(=O)n(C2CCC(=O)NC2=O)c2ccc(CCCN3CCN(c4ccc(-c5cc(-c6cc7c([nH]6)C6(CC6)CNC7=O)ccn5)cc4)CC3)cc21 (stereo not shown) [Compound I-242]	> 75%	1 to 10 nM	50 to 75%	10 to 100 nM	
Cn1c(=O)n(C2CCC(=O)NC2=O)c2ccc(N3CCC(CN4CCN(c5ccc(-c6cc(-c7cc8c([nH]7)C7(CC7)CNC8=O)ccn6)cn5)CC4)CC3)cc21 (stereo not shown) [Compound I-243]	> 75%	< 1 nM	50 to 75%	< 1 nM	
Cn1c(=O)n(C2CCC(=O)NC2=O)c2ccc(N3CCC(CN4CCN(c5ccc(-c6cc(-c7cc8c([nH]7)C7(CC7)CNC8=O)ccn6)cc5)CC4)CC3)cc21 (stereo not shown) [Compound I-244]	> 75%	< 1 nM	> 75%	< 1 nM	
C[C@@H]1CNc2c(sc3ccc4nc(-c5ccc(N6CCN(CC7CN(c8cccc9c8n(C)c(=O)n9C8CCC(=O)NC8=O)C7)CC6)nc5)ccc4c23)C(=O)N1 (stereo partly shown) [Compound I-245]	> 75%	< 1 nM	> 75%	< 1 nM	
C[C@@H]1CNc2c(sc3ccc4nc(-c5ccc(N6CCN(C7CC(c8cccc9c8n(C)c(=O)n9C8CCC(=O)NC8=O)C7)CC6)cc5)ccc4c23)C(=O)N1 (stereo partly shown) [Compound I-246]	> 75%	< 1 nM	> 75%	< 1 nM	
C[C@@H]1Cc2[nH]c(-c3ccnc(-c4ccc(N5CCC(CN6CCC(c7cccc8c7n(C)c(=O)n8C7CCC(=O)NC7=O)CC6)CC5)cc4)c3)cc2C(=O)N1 (stereo partly shown) [Compound I-248]	> 75%	1 to 10 nM	> 75%	1 to 10 nM	
Cc1cc(N2CCN(CCCc3ccc4c(c3)n(C)c(=O)n4C3CCC(=O)NC3=O)CC2)ncc1-c1ccc2c(ccc3sc4c(c32)NC[C@@H](C)NC4=O)n1 (stereo partly shown) [Compound I-249]	50 to 75%	< 1 nM	50 to 75%	1 to 10 nM	
Cc1cc(N2CCN(CC3CN(c4ccc5c(c4)n(C)c(=O)n5C4CCC(=O)NC4=O)C3)CC2)ncc1-c1ccc2c(ccc3sc4c(c32)NC[C@@H](C)NC4=O)n1 (stereo partly shown) [Compound I-250]	> 75%	< 1 nM	50 to 75%	< 1 nM	
C[C@@H]1CNc2c(sc3ccc4nc(-c5ccc(N6CCN(CCCc7ccc8c(c7)n(C)c(=O)n8C7CCC(=O)NC7=O)CC6)cc5Cl)ccc4c23)C(=O)N1 (stereo partly shown) [Compound I-251]	50 to 75%	< 1 nM	< 50%		—
C[C@@H]1CNc2c(sc3ccc4nc(-c5ccc(N6CCN(CCCc7ccc8c(c7)n(C)c(=O)n8C7CCC(=O)NC7=O)CC6)cc5F)ccc4c23)C(=O)N1 (stereo partly shown) [Compound I-252]	> 75%	< 1 nM	> 75%	< 1 nM	
C[C@@H]1CN(C)c2c(sc3ccc4nc(-c5ccc(N6CCC(CN7CCN(c8ccc9c(c8)n(C)c(=O)n9C8CCC(=O)NC8=O)CC7)CC6)cc5)ccc4c23)C(=O)N1 (stereo partly shown) [Compound I-253]	> 75%	1 to 10 nM	> 75%	1 to 10 nM	
C[C@@H]1CNc2c(sc3ccc4nc(-c5ccc(N6CCN(CC7CN(c8ccc9c(c8)n(C)c(=O)n9C8CCC(=O)NC8=O)C7)CC6)nc5)ccc4c23)C(=O)N1 (stereo partly shown) [Compound I-254]	> 75%	< 1 nM	> 75%	< 1 nM	
COc1ccc2c(c1N1CCC(CN3CCN(c4ccc(-c5ccc6c(ccc7sc8c(c76)NC[C@@H](C)NC8=O)n5)cn4)CC3)CC1)n(C)c(=O)n2C1CCC(=O)NC1=O (stereo partly shown) [Compound I-255]	> 75%	1 to 10 nM	> 75%	1 to 10 nM	
COc1ccc2c(c1N1CCN(CC3CCN(c4ccc(-c5ccc6c(ccc7sc8c(c76)NC[C@@H](C)NC8=O)n5)cn4)CC3)CC1)n(C)c(=O)n2C1CCC(=O)NC1=O (stereo partly shown) [Compound I-256]	> 75%	< 1 nM	> 75%	< 1 nM	
Cn1c(=O)n(C2CCC(=O)NC2=O)c2cccc(CCCCCCN3CC4(CCN(c5ccc6c(c5)Cn5cc(-c7ccc(F)cc7)cc5-c5nccn5-6)C4)C3)c21 (stereo not shown) [Compound I-257]	< 50%	> 100 nM	< 50%	> 100 nM	
Cc1cc(-c2ccc3c(ccc4sc5c(c43)NC[C@@H](C)NC5=O)n2)cnc1N1CCN(CCCc2ccc3c(c2)n(C)c(=O)n3C2CCC(=O)NC2=O)CC1 (stereo partly shown) [Compound I-258]	50 to 75%	1 to 10 nM	< 50%	1 to 10 nM	

SMILES	Dmax (MK2 [1])	DC50 (MK2 [1])	Dmax (MK2 [2])	DC50 (MK2 [2])	MK2 MSD THP-1 degradation 24 h GMean External Abs DC50 (MK2 [2])
Cc1nc(N2CCN(CCCc3ccc4c(c3)n(C)c(=O)n4C3CCC(=O)NC3=O)CC2)ccc1-c1ccc2c(ccc3sc4c(c32)NC[C@@H](C)NC4=O)n1 (stereo partly shown) [Compound I-259]	> 75%	1 to 10 nM	< 50%		—
Cc1cc(N2CCN(CCCc3ccc4c(c3)n(C)c(=O)n4C3CCC(=O)NC3=O)CC2)ccc1-c1ccc2c(ccc3sc4c(c32)NC[C@@H](C)NC4=O)n1 (stereo partly shown) [Compound I-260]	> 75%	< 1 nM	50 to 75%		—
C[C@@H]1CN(C)c2c(sc3ccc4nc(-c5ccc(N6CCC(CN7CCN(c8cccc9c(N%10CCC(=O)NC%10=O)cncc89)CC7)CC6)cc5)ccc4c23)C(=O)N1 [Compound I-261]	> 75%	10 to 100 nM	< 50%	> 100 nM	
C[C@@H]1CNc2c(sc3ccc4nc(-c5ccc(N6CCN(C7CN(c8cccc9c8n(C)c(=O)n9C8CCC(=O)NC8=O)C7)CC6)cc5)ccc4c23)C(=O)N1 (stereo partly shown) [Compound I-262]	> 75%	< 1 nM	> 75%	< 1 nM	
C[C@@H]1Cc2[nH]c(-c3ccnc(-c4ccc(N5CCC(CN6CCC(c7ccc8c(c7)n(C)c(=O)n8C7CCC(=O)NC7=O)CC6)CC5)cc4)c3)cc2C(=O)N1 (stereo partly shown) [Compound I-263]	> 75%	< 1 nM	> 75%	< 1 nM	
C[C@@H]1CNc2c(sc3ccc4nc(N5CCC(CN6CCN(c7ccc8c(c7)n(C)c(=O)n8C7CCC(=O)NC7=O)CC6)CC5)ccc4c23)C(=O)N1 (stereo partly shown) [Compound I-264]	> 75%	1 to 10 nM	> 75%	1 to 10 nM	
C[C@@H]1CNc2c(sc3ccc4nc(N5CCN(CC6CCN(c7ccc8c(c7)n(C)c(=O)n8C7CCC(=O)NC7=O)CC6)CC5)ccc4c23)C(=O)N1 (stereo partly shown) [Compound I-265]	> 75%	1 to 10 nM	> 75%	1 to 10 nM	
C[C@@H]1CN(C)c2c(sc3ccc4nc(-c5ccc(N6CCN(CCCc7ccc8c(c7)n(C)c(=O)n8C7CCC(=O)NC7=O)CC6)cc5)ccc4c23)C(=O)N1 (stereo partly shown) [Compound I-266]	> 75%	1 to 10 nM	> 75%	1 to 10 nM	
C[C@@H]1CN(C)c2c(sc3ccc4nc(-c5cccc(N6CCC(CN7CCN(c8cccc9c(N%10CCC(=O)NC%10=O)cncc89)CC7)CC6)c5)ccc4c23)C(=O)N1 [Compound I-267]	< 50%	> 100 nM	< 50%	> 100 nM	
C[C@@H]1CN(C)c2c(sc3ccc4nc(-c5ccc(N6CCN(CC7CCN(c8ccc9c(c8)n(C)c(=O)n9C8CCC(=O)NC8=O)CC7)CC6)nc5)ccc4c23)C(=O)N1 (stereo partly shown) [Compound I-268]	> 75%	1 to 10 nM	> 75%	1 to 10 nM	
C[C@@H]1CNc2c(sc3ccc4nc(-c5ccc(N6CCN(CC7CN(c8cccc9c8n(C)c(=O)n9C8CCC(=O)NC8=O)C7)CC6)cc5)ccc4c23)C(=O)N1 (stereo partly shown) [Compound I-269]	> 75%	1 to 10 nM	> 75%	< 1 nM	
C[C@@H]1CNc2c(sc3ccc4nc(-c5cnc(N6CCC(CN7CCN(c8cccc9c8n(C)c(=O)n9C8CCC(=O)NC8=O)CC7)CC6)nc5)ccc4c23)C(=O)N1 (stereo partly shown) [Compound I-270]	> 75%	1 to 10 nM	> 75%	< 1 nM	
C[C@@H]1CNc2c(sc3ccc4nc(-c5cnc(N6CCC(CN7CCN(c8ccc9c(c8)n(C)c(=O)n9C8CCC(=O)NC8=O)CC7)CC6)nc5)ccc4c23)C(=O)N1 (stereo partly shown) [Compound I-271]	> 75%	< 1 nM	> 75%	< 1 nM	
Cc1cc(-c2ccc3c(ccc4sc5c(c43)NC[C@@H](C)NC5=O)n2)cnc1N1CCN(CC2CCN(c3ccc4c(c3)n(C)c(=O)n4C3CCC(=O)NC3=O)CC2)CC1 (stereo partly shown) [Compound I-272]	> 75%	< 1 nM	> 75%	< 1 nM	
C[C@@H]1CN(C)c2c(sc3ccc4nc(-c5ccc(N6CCN(CC7CCN(c8cccc9c8n(C)c(=O)n9C8CCC(=O)NC8=O)CC7)CC6)cc5)ccc4c23)C(=O)N1 (stereo partly shown) [Compound I-274]	> 75%	10 to 100 nM	> 75%	10 to 100 nM	

From US20230135894A1, “MK2 DEGRADERS AND USES THEREOF” (Kymera Therapeutics, Inc., priority 2021, published 2023)
